The record followed here is US10703765B2 (priority 2014, dated 2020).

pKi: −log10 of the molar value. Where a name gives a salt, the structure may show the parent alone. Where only a bound is given, the exact number is not on record here.

human σ1 receptor, sequence (Q99720 whole entry): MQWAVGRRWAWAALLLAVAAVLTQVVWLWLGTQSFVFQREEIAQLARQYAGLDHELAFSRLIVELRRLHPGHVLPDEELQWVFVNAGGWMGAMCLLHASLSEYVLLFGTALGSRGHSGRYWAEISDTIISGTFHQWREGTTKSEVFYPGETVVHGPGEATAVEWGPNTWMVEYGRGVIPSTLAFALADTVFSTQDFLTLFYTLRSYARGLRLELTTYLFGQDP

The first assay has as its target human σ1 receptor (Homo sapiens, UniProt Q99720). As to the kind of experiment: biochemical. The format is binding. Also noted: μ and σ1 dual binding: key to the marks not given beside the values.
Conditions: not given
With `CCOC(=O)c1cccc(N2CC3(CCN(CCc4ccccc4)CC3)OC(C)C2=O)c1.Cl` (centres unmarked) [Example 197, ethyl 3-(2-methyl-3-oxo-9-phenethyl-1-oxa-4,9-diazaspiro[5.5]undecan-4-yl)benzoate hydrochloride], the “μ and σ1 dual binding” value was “++”.

With `COc1cccc(CCN2CCC3(CC2)CN(c2ccccc2)CCO3)c1.Cl` [Example 320, 9-(3-methoxyphenethyl)-4-phenyl-1-oxa-4,9-diazaspiro[5.5]undecane hydrochloride], the “μ and σ1 dual binding” value is “++”.

For `CC1OC2(CCN(CCc3cccnc3N)CC2)CN(c2ccccc2)C1=O` (centres unmarked) [Example 234, 9-(2-(2-aminopyridin-3-yl)ethyl)-2-methyl-4-phenyl-1-oxa-4,9-diazaspiro[5.5]undecan-3-one hydrochloride], the pKi was more than 6.30.

For `CC1OC2(CCN(CCc3ccccc3)CC2)CN(Cc2nccs2)C1=O` (centres unmarked) [Example 160, 2-methyl-9-phenethyl-4-(thiazol-2-ylmethyl)-1-oxa-4,9-diazaspiro[5.5]undecan-3-one hydrochloride], the pKi was more than 7.00.

For the compound `COc1ccc(N2CC3(CCN(CCc4ccccc4)CC3)OC(C)C2=O)cc1.Cl` (centres unmarked) [Example 1, 4-(4-methoxyphenyl)-2-methyl-9-phenethyl-1-oxa-4,9-diazaspiro[5.5]undecan-3-one hydrochloride], the “μ and σ1 dual binding” value is recorded as “++”.

In the case of `CC1OC2(CCN(CCc3cccc(N)n3)CC2)CN(c2ccccc2)C1=O` (centres unmarked) [Example 29, 9-(2-(6-aminopyridin-2-yl)ethyl)-2-methyl-4-phenyl-1-oxa-4,9-diazaspiro[5.5]undecan-3-one], the pKi is more than 6.30.

In turn, `O=C1C(CCCO)OC2(CCN(CCc3ccccc3)CC2)CN1c1ccccc1F` (centres unmarked) [Example 302, 4-(2-fluorophenyl)-2-(3-hydroxypropyl)-9-phenethyl-1-oxa-4,9-diazaspiro[5.5]undecan-3-one] showed a pKi of more than 6.30.

For `CC1OC2(CCN(CCc3ccncc3Cl)CC2)CN(c2ccccc2)C1=O` (centres unmarked) [Example 50, 9-(2-(3-chloropyridin-4-yl)ethyl)-2-methyl-4-phenyl-1-oxa-4,9-diazaspiro[5.5]undecan-3-one hydrochloride], the pKi was more than 6.30.

Compound `COCCCC1OC2(CCN(CCc3ccccc3)CC2)CN(c2ccccc2F)C1=O` (centres unmarked) [Example 314, 4-(2-fluorophenyl)-2-(3-methoxypropyl)-9-phenethyl-1-oxa-4,9-diazaspiro[5.5]undecan-3-one hydrochloride] gave a pKi of more than 6.30.

With `CNC(=O)c1cccc(CCN2CCC3(CC2)CN(c2ccccc2F)C(=O)C(C)O3)c1` (centres unmarked) [Example 276, 3-(2-(4-(2-fluorophenyl)-2-methyl-3-oxo-1-oxa-4,9-diazaspiro[5.5]undecan-9-yl)ethyl)-N-methylbenzamide], the pKi was more than 6.30.

Take `Cl.O=C1COC2(CCN(CCc3ccccc3O)CC2)CN1Cc1ccccn1` [Example 300, 9-(2-hydroxyphenethyl)-4-(pyridin-2-ylmethyl)-1-oxa-4,9-diazaspiro[5.5]undecan-3-one hydrochloride]: the “μ and σ1 dual binding” value is reported as “++”.

In the case of `CC1OC2(CCN(CCc3ncccc3F)CC2)CN(c2ccccc2)C1=O` (centres unmarked) [Example 96, 9-(2-(3-fluoropyridin-2-yl)ethyl)-2-methyl-4-phenyl-1-oxa-4,9-diazaspiro[5.5]undecan-3-one hydrochloride], the pKi was more than 6.30.

Turning to `CC1OC2(CCN(CCc3ccccc3)CC2)CN(Cc2nccn2C)C1=O.Cl` (centres unmarked) [Example 172, 2-methyl-4-((1-methyl-1H-imidazol-2-yl)methyl)-9-phenethyl-1-oxa-4,9-diazaspiro[5.5]undecan-3-one hydrochloride], the “μ and σ1 dual binding” value is given as “++”.

The compound `CC1OC2(CCN(CCc3ccccc3)CC2)CN(Cc2cccc(F)c2)C1=O` (centres unmarked) [Example 155, 4-(3-fluorobenzyl)-2-methyl-9-phenethyl-1-oxa-4,9-diazaspiro[5.5]undecan-3-one hydrochloride] had a pKi of more than 7.00.

Still in this assay, the particulars now being: combined class from Ki-σ1 (human σ1 receptor, A1) and Ki-μ (human μ-opioid receptor, A2) radioligand binding.
`COc1ccc(CCN2CCC3(CC2)CN(c2ccccc2)CCO3)cc1` [Example 332, 9-(4-methoxyphenethyl)-4-phenyl-1-oxa-4,9-diazaspiro[5.5]undecane]: the “μ and σ1 dual binding” value is reported as “++”.

The same assay, now with this note: read-out: μ and σ1 dual binding.
For `c1ccc(CCN2CCC3(CC2)CN(Cc2cscn2)CCO3)cc1` [Example 325, 9-phenethyl-4-(thiazol-4-ylmethyl)-1-oxa-4,9-diazaspiro[5.5]undecane dihydrochloride], the pKi is more than 6.30.

Take `Nc1cccc(CN2CC3(CCN(CCc4ccccc4)CC3)OCC2=O)c1` [Example 233, 4-(3-aminobenzyl)-9-phenethyl-1-oxa-4,9-diazaspiro[5.5]undecan-3-one hydrochloride]: the pKi was more than 6.30.

As for `CC1OC2(CCN(CCc3ccc(C(=O)O)cc3)CC2)CN(c2ccccc2)C1=O` (centres unmarked) [Example 267, 4-(2-(2-methyl-3-oxo-4-phenyl-1-oxa-4,9-diazaspiro[5.5]undecan-9-yl)ethyl)benzoic acid], the pKi is less than 6.30.

On to `CC1OC2(CCN(CCc3ccccc3)CC2)CN(c2cccc(C(F)(F)F)n2)C1=O` (centres unmarked) [Example 207, 2-methyl-9-phenethyl-4-(6-(trifluoromethyl)pyridin-2-yl)-1-oxa-4,9-diazaspiro[5.5]undecan-3-one], for which the pKi was more than 7.00.

Turning to `CC1OC2(CCN(CC(=O)N3CCCCC3)CC2)CN(Cc2ccc(C(F)(F)F)cn2)C1=O` (centres unmarked) [Example 128, 2-methyl-9-(2-oxo-2-(piperidin-1-yl)ethyl)-4-((5-(trifluoromethyl)pyridin-2-yl)methyl)-1-oxa-4,9-diazaspiro[5.5]undecan-3-one hydrochloride], the pKi was less than 6.30.

Take `CC1OC2(CCN(CCc3ccc(S(N)(=O)=O)cc3)CC2)CN(c2ccccc2)C1=O` (centres unmarked) [Example 108, 4-(2-(2-methyl-3-oxo-4-phenyl-1-oxa-4,9-diazaspiro[5.5]undecan-9-yl)ethyl)benzenesulfonamide]: the pKi was less than 6.30.

In the case of `CC1OC2(CCN(CCc3cccc(C#N)c3)CC2)CN(c2ccccc2)C1=O` (centres unmarked) [Example 75, 3-(2-(2-methyl-3-oxo-4-phenyl-1-oxa-4,9-diazaspiro[5.5]undecan-9-yl)ethyl)benzonitrile hydrochloride], the pKi is more than 7.00.

As for `CC(C)C1OC2(CCN(CCc3ccccc3)CC2)CN(c2ccccc2)C1=O` (centres unmarked) [Example 17, 2-isopropyl-9-phenethyl-4-phenyl-1-oxa-4,9-diazaspiro[5.5]undecan-3-one hydrochloride], the pKi is more than 7.00.

As for `CC1OC2(CCN(CCc3ncccc3F)CC2)CN(c2cccnc2C(F)(F)F)C1=O` (centres unmarked) [Example 48, 9-(2-(3-fluoropyridin-2-yl)ethyl)-2-methyl-4-(2-(trifluoromethyl)pyridin-3-yl)-1-oxa-4,9-diazaspiro[5.5]undecan-3-one], the pKi is less than 6.30.

For the compound `O=C1COC2(CCN(CCc3ccccc3)CC2)CN1Cc1ccc(Cl)cn1` [Example 105, 4-((5-chloropyridin-2-yl)methyl)-9-phenethyl-1-oxa-4,9-diazaspiro[5.5]undecan-3-one hydrochloride], the pKi is more than 7.00.

As to `CC(=O)Nc1cccc(CCN2CCC3(CC2)CN(Cc2ccc(C(F)(F)F)cn2)C(=O)CO3)c1` [Example 251, N-(3-(2-(3-oxo-4-((5-(trifluoromethyl)pyridin-2-yl)methyl)-1-oxa-4,9-diazaspiro[5.5]undecan-9-yl)ethyl)phenyl)acetamide hydrochloride], the pKi was more than 6.30.
